Experimental data taken from patent US7589123B2, “Chemical compounds” (Phytopharm PLC, priority 2006, dated 2009).

Tests used:
TRPV1 receptor [1] = target: T1, TRPV1 receptor (Rattus norvegicus, UniProt O35433); assay: TRPV1 receptor modulation in the rat vas deferens, EFS-induced contraction (Assay 1); details: electrical field stimulation, read-out: Inhibition of EFS response relative to capsaicin
Method: Wistar derived male rats (275±25 g) were suppressed by CO2 overexposure. The vas deferens was removed, placed in Krebs solution, pH 7.4 (composition in g/l: NaCl 6.89, KCl 0.35, CaCl2 0.277, KH2PO4 0.163, MgSO4.7H2O 0.296, NaHCO3 2.1 glucose 1.8) and excess fat and connective tissue removed. The portion of the vas deferens closest to the prostate was cut in half and each half was placed under 1 g tension in a 10 ml bath containing Krebs solution at 32° C. The tissue was contracted by electrical field stimulation (EFS; 60% of maximum stimulation, 0.015 Hz, 0.5 ms in duration) and contractile responses were measured.

[2] = test system: histamine-induced contractions in guinea pig ileum; assay: Inhibition of histamine-induced contractions in guinea pig ileum (Assay 3); details: Cavia porcellus, histamine 1.7 μM, read-out: Inhibition of histamine-induced contraction (%)
Procedure, shortened: (§1)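 Ileal strips from male Duncan Hartley guinea pigs were held at 1 g tension in 32° C oxygenated Krebs (pH 7.4) with isotonic transducers. After control contractions to 5-HT (2.6 μM) or histamine (1.7 μM), compound at 3 and 30 μM was added, its own effect noted, and agonist re-applied.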

[3] = test system: 5-HT-induced contractions in guinea pig ileum; assay: Inhibition of 5-HT-induced contractions in guinea pig ileum (Assay 3); details: Cavia porcellus, 5-HT 2.6 μM, read-out: Inhibition of 5-HT-induced contraction (%)
Procedure, shortened: as §1

[4] = test system: α-smooth muscle actin (α-SMA) mRNA; assay: Anti-remodelling activity in human lung fibroblasts (HFL1): TGFβ-induced α-SMA mRNA (Assay 4); type: cell-based; details: Homo sapiens, HFL1 cells, TGFβ 10 ng/ml, 24 h, read-out: Inhibition of α-SMA mRNA synthesis (%)
Procedure, shortened: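 Real-time RT-PCR of α-SMA mRNA, GAPDH as reference, measured after 24 h exposure of low-serum-primed HFL1 cells to 10 ng/ml TGFβ with test compounds (3 and 30 μM) in 10% FBS medium. Readout is inhibition of TGFβ-driven α-SMA mRNA overexpression.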

WI-38 cells = assay: Viability of WI-38 cells, Alamar Blue (Assay 5); type: cell-based, human
Procedure, shortened: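 Cell viability was read by Alamar Blue fluorescence (530/590 nm) after 4 h at 37 °C, following an overnight 37 °C incubation of human lung fibroblasts with 1 nM IL-1α and compound (3 or 30 μM) in 10% FBS MEM, pH 7.3. Supernatant PGE2 was measured by radioimmunoassay to derive percent inhibition.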

TRPV1 receptor [5] = target: T1, TRPV1 receptor; assay: TRPV1 modulation in DRG neurones: CGRP release in absence and presence of capsaicin (Assay 2); type: cell-based; parameters: The culture used for this experiment contained sensory neurones, Schwann cells and fibroblasts; endogenous in cells; host or cells: primary rat DRG sensory neurone culture (with Schwann cells and fibroblasts); details: 20 min; for inhibition at 3 µM: 3 μM with capsaicin 1 μM; for inhibition at 3 µM / inhibition at 30 µM: −ve: inhibition, +ve: potentiation of capsaicin response, read-out: Effect of test compounds on capsaicin (1 μM)-induced CGRP release (%); for inhibition at 30 µM: 30 μM with capsaicin 1 μM; for Emax at 3 µM: test compound alone 3 μM; for Emax at 3 µM / Emax at 30 µM: rat DRG sensory neurones, read-out: CGRP release (% of capsaicin (1 μM) response); for Emax at 30 µM: test compound alone 30 μM

T1 sequence (O35433 whole entry): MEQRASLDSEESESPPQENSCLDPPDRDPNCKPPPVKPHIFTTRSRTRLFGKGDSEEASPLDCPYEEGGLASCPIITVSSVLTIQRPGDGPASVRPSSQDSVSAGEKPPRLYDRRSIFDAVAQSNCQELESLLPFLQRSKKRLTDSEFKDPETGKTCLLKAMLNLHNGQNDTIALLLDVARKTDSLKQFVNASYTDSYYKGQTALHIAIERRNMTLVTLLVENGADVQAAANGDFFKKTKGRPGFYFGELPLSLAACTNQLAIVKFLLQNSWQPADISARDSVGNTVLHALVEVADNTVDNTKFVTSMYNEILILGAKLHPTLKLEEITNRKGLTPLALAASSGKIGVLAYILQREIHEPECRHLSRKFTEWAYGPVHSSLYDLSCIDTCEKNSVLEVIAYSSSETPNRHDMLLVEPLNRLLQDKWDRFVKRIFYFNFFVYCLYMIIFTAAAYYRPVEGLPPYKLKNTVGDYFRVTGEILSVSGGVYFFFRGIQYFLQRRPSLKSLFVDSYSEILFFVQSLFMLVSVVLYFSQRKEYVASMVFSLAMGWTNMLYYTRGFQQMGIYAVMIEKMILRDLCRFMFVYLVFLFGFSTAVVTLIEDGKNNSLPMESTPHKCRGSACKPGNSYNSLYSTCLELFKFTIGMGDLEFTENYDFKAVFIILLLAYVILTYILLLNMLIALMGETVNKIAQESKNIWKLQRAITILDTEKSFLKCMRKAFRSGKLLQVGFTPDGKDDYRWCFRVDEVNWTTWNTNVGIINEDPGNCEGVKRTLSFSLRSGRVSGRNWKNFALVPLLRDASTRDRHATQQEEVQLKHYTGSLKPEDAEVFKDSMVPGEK

Structure (SMILES)	Emax (TRPV1 receptor [1]) [%]	inhibition at 3 µM (TRPV1 receptor [5]) [%]	inhibition at 30 µM (TRPV1 receptor [5]) [%]	Emax at 3 µM (TRPV1 receptor [5]) [%]	Emax at 30 µM (TRPV1 receptor [5]) [%]	inhibition at 3 µM [2] [%]	inhibition at 30 µM [2] [%]	inhibition at 3 µM [3] [%]	inhibition at 30 µM [3] [%]	inhibition at 3 µM [4] [%]	inhibition at 30 µM [4] [%]	Decrease in cell viability (%) (WI-38 cells; 3 μM)	Decrease in cell viability (%) (WI-38 cells; 30 μM)
COc1cc(CCC(=O)CC(=O)C(C)(C)C)ccc1O [Compound 2, 6,6-Dimethyl-1-(4-hydroxy-3-methoxyphenyl)-heptane-3,5-dione]	96	-46	-8	20	117	0	28	8	79	5	27	−2	4
COc1cc(CCC(=O)CC(=O)C2(C)CC2)ccc1O [Compound 6, 5-(4-Hydroxy-3-methoxyphenyl)-1-(1-methylcyclopropyl)-pentane-1,3-dione]	24	15	28	52	49	0	12	0	34	-12	22	6	4
COc1cc(CCC(=O)C(C)(C)C(=O)c2ccccc2)ccc1O [Compound 32, 2,2-Dimethyl-5-(4-hydroxy-3-methoxy-phenyl)-1-phenyl-pentane-1,3-dione]	–	47	40	22	21	15	89	9	93	13	58	−4	−3

Further lines, with some results ahead:

Emax (TRPV1 receptor [1]) [%]	inhibition at 3 µM (TRPV1 receptor [5]) [%]	inhibition at 30 µM (TRPV1 receptor [5]) [%]	Emax at 3 µM (TRPV1 receptor [5]) [%]	Emax at 30 µM (TRPV1 receptor [5]) [%]	Structure (SMILES)	inhibition at 3 µM [2] [%]	inhibition at 30 µM [2] [%]	inhibition at 3 µM [3] [%]	inhibition at 30 µM [3] [%]	inhibition at 3 µM [4] [%]	inhibition at 30 µM [4] [%]	Decrease in cell viability (%) (WI-38 cells; 3 μM)	Decrease in cell viability (%) (WI-38 cells; 30 μM)
68	8	12	24	111	COc1cc(CCC(=O)C(C)C(=O)c2ccccc2)ccc1O (stereo not shown) [Compound 11, 5-(4-Hydroxy-3-methoxy-phenyl)-2-methyl-1-phenyl-pentane-1,3-dione]	0	32	0	53	8	39	1	−7
38	-49	23	49	36	COc1cc(CCC(=O)CC(=O)c2ccccc2)ccc1O [Compound 69, 5-(4-Hydroxy-3-methoxyphenyl)-1-phenyl-pentane-1,3-dione]	9	41	9	63	10	34	3	4
